Here are results for 8 molecules from ChEMBL document CHEMBL3046028, “3D-QSAR study of tyrosine and propanoic acid derivatives as PPAR/ dual agonists using CoMSIA” (Med Chem Res, 2013).

The target in assay [1] is T1, Peroxisome proliferator-activated receptor gamma (Homo sapiens, UniProt P37231).
T1 sequence (P37231 whole entry): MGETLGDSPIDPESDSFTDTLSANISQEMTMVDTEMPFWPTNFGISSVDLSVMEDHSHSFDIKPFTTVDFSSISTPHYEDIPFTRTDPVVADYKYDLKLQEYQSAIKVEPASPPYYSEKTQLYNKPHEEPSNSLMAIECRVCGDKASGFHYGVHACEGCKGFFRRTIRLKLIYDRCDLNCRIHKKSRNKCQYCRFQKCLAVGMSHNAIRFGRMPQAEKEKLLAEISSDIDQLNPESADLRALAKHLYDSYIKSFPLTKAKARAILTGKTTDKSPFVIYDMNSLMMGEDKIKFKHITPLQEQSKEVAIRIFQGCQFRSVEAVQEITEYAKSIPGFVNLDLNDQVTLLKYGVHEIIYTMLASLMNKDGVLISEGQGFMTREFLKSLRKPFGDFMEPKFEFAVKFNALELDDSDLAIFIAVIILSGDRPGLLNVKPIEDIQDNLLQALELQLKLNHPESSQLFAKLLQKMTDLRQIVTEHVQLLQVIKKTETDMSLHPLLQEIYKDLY
The format is cell-based, CV-1.
Description: Transactivation of GAL4-fused Homo sapiens (human) PPARgamma DNA binding domain expressed in African green monkey CV1 cells by luciferase reporter gene assay

Assay [2] concerns the target T2, Peroxisome proliferator-activated receptor alpha (Homo sapiens, UniProt Q07869).
T2 sequence (Q07869 whole entry): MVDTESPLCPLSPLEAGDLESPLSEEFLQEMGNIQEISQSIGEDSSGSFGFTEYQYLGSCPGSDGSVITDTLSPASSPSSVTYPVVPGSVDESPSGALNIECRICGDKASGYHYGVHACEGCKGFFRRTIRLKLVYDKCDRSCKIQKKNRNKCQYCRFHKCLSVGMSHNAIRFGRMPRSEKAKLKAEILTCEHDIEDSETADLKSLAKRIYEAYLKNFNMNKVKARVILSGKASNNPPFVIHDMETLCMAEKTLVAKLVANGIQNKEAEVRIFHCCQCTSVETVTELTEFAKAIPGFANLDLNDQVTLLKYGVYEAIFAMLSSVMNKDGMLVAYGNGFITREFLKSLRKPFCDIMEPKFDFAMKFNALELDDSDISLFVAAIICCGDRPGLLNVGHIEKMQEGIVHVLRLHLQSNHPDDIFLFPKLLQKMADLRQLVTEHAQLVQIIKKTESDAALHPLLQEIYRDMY
Kind of assay: Transactivation of GAL4-fused Homo sapiens (human) PPARalpha […] expressed in African green monkey CV1 cells by luciferase reporter gene assay. The following applies: for pEC50: read-out: EC50; for EC50: read-out: pEC50 (converted). The format is cell-based, CV-1.

pEC50: −log10 of the molar value.

As to `Cc1sc(-c2ccccc2)nc1CCOc1ccc(C[C@@](O)(C(=O)O)c2ccccc2C(=O)c2ccccc2)cc1`, the pEC50 was 10.00 in assay [1] and 5.98 in assay [2].

On to `Cc1oc(-c2ccccc2)nc1CCOc1ccc(C[C@@]2(C(=O)O)CCOCCO2)cc1`, for which the pEC50 is 7.62 in assay [1] and 5.16 in assay [2].

For the molecule `Cc1sc(N2CCN(C)CC2)nc1CCOc1ccc(C[C@@](O)(C(=O)O)c2ccccc2C(=O)c2ccccc2)cc1`, the pEC50 in assay [1] was 8.89; in assay [2], 5.19.

For `CCO[C@@H](Cc1ccc(OC/C=C(/c2ccccc2)c2ccc(-c3ccccc3)cc2)cc1)C(=O)O`, the EC50 in assay [2] is 0.692 µM.

Regarding `Cc1oc(-c2ccccc2)nc1CCOc1ccc(C[C@@](O)(C(=O)O)c2ccccc2C(=O)c2ccccc2)cc1`, the results for the pEC50 in assay [1] and in assay [2] were 9.47 and 6.34, respectively.

As for `CCO[C@@H](Cc1ccc(OC/C=C(/c2ccccc2)c2ccc(F)cc2)cc1)C(=O)O`, the EC50 in assay [2] was 3.16 µM.

Take `COC(=O)c1ccccc1[C@@](O)(Cc1ccc(OCCc2nc(-c3ccccc3)oc2C)cc1)C(=O)O`: the pEC50 was 9.15 in assay [1] and 5.46 in assay [2].

The molecule `Cc1oc(-c2ccccc2)nc1CCOc1ccc(C[C@]2(C(=O)O)C=CC=CO2)cc1` had a pEC50 in assay [1] of 7.70.
